Source: patent publication US20060247233A1, “Thiazoles inhibitors of the alk-5 receptor” (priority 2003, published 2006)

Experiments:
[1] = system: HepG2 cells stably transfected with the PAI-1 promoter linked to a luciferase (firefly) reporter gene, exposed to TGF-β; assay: Assay 1 (Cellular Transcriptional Assay): TGF-β induced PAI-1 promoter luciferase reporter; conditions: for IC50: Homo sapiens, HepG2, read-out: TGF-β cellular activity (IC50)
Description: The assay was performed in HepG2 cells stably transfected with the PAI-1 promoter (known to be a strong TGF-β responsive promoter) linked to a luciferase (firefly) reporter gene. The compounds were selected on their ability to inhibit luciferase activity in cells exposed to TGF-β. In addition, cells were transfected with a second luciferase (Renilla) gene which was not driven by a TGF-β responsive promoter and was used as a toxicity control.
96 well microplates were seeded, using a multidrop apparatus, with the stably transfected cell line at a concentration of 35000 cells per well in 200 μl of serum-containing medium. These plates were placed, in a cell incubator.
18 to 24 hours later (Day 2), cell-incubation procedure was launched: Cells were incubated with TGF-β and a candidate compound at concentrations in the range 50 nM to 10 μM (final concentration of DMSO 1%). The final concentration of TGF-β (rhTGFβ-1) used in the test was 1 ng/mL. […] The final volume of the test reaction was 150 μl. Each well contained only one candidate compound and its effect on the PAI-1 promoter was monitored.
Columns 11 and 12 were employed as controls. Column 11 contained 8 wells in which the cells were incubated in the presence of TGF-β, without a candidate compound. Column 11 was used to determine the ‘reference TGF-β induced firefly luciferase value’ against which values measured in the test wells (to quantify inhibitory activity) were compared. In wells A12 to D12, cells were grown in medium without TGF-β. […]
12 to 18 hours later (day 3), the luciferase quantification procedure was launched. […] Following agitation (15 to 30 mins), luciferase activities of the plates were read in a dual-injector luminometer (BMG lumistar). For this purpose, 50 μl of luciferase assay reagent and 50 μl of ‘Stop & Glo’ buffer were injected sequentially to quantify the activities of both luciferases. […] For each of the compounds tested, a concentration response curve was constructed from which an IC50 value was determined graphically.

[2] = target: T1, recombinant GST-ALK5 (residues 198-503) (Homo sapiens, UniProt P36897); assay: Assay 2 (Alk5 Fluorescence Polarization Assay); type: binding; conditions: rhodamine green-labelled ligand 1 nM, ALK5 10 nM, read-out: ALK5 receptor modulator activity (IC50)
T1 construct: assays using recombinant GST-ALK5 (residues 198-503); GST (N)
T1 sequence (P36897 198-503): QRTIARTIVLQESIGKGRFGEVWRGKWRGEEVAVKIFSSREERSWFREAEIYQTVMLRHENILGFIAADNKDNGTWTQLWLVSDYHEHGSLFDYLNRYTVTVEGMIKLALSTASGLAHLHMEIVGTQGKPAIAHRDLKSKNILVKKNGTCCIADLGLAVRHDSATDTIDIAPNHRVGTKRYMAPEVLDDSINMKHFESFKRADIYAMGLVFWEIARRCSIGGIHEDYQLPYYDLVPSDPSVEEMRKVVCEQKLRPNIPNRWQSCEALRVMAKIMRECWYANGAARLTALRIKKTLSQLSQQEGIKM
Description: Assay 2 (Alk5 Fluorescence Polarization Assay)
Kinase inhibitor compounds conjugated to fluorophores, can be used as fluorescent ligands to monitor ATP competitive binding of other compounds to a given kinase. The increase in depolarization of plane polarized light, caused by release of the bound ligand into solution, is measured as a polarization/anisotropy value. This protocol details the use of a rhodamine green-labelled ligand for assays using recombinant GST-ALK5 (residues 198-503).
Assay buffer components: 62.5 mM Hepes pH 7.5 (Sigma H-4034), 1 mM DTT (Sigma D-0632), 12.5 mM MgCl2 (Sigma M-9272), 1.25 mM CHAPS (Sigma C-3023). […]
ALK5 was added to assay buffer containing the above components and 1 nM of the rhodamine green-labelled ligand so that the final ALK5 concentration was 10 nM based on active site titration of the enzyme. […] The plates were read immediately on a UL Acquest fluorescence reader (Molecular Devices, serial number AQ1048) with excitation, emission, and dichroic filters of 485 nm, 530 nm, and 505 nm, respectively. The fluorescence polarization for each well was calculated by the Acquest reader and then imported into curve fitting software for construction of concentration response curves. The normalized response was determined relative to the high controls (1 μl DMSO in column 12, rows […]) and the low controls (1 μl of control compound in column 12, rows E-H). […]

IC50 [2] [nM]	melting point [°C]	IC50 [1] [nM]	SMILES	firefly and renilla luciferase activities, relative to TGF-β only wells ([1]; 500 μM, in the presence of TGF-β, toxicity control)
–	188 to 190	–	Cc1cccc(-c2sc(N)nc2-c2ccc3ncoc3c2)n1 [Example 2, 4-(benzoxazol-6-yl)-5-(6-methyl-pyridin-2-yl)-1,3-thiazol-2-amine]	–
–	200 to 202	–	COCCn1cnc2ccc(-c3sc(N)nc3-c3cccc(C)n3)cc21 [Example 4, 5-(1-(2-methoxyethyl)-benzimidazol-6-yl)-4-(6-methylpyridin-2-yl)-1,3-thiazol-2-amine]	–
27	228 to 230	104	CCN1C(=O)COc2ccc(-c3sc(N)nc3-c3cccc(C)n3)cc21 [Example 6, 5-[4-ethyl-4H-benzo[1,4]oxazin-3-one-6-yl]-4-(6-methylpyridin-2-yl)-1,3-thiazol-2-amine]	–
–	170 to 172	–	Cc1cccc(-c2sc(N)nc2-c2ccc3c(c2)OCO3)n1 [Example 7, 4-(Benzo[1,3]dioxol-5-yl)-5-(6-methylpyridin-2-yl)-1,3-thiazol-2-amine]	–
–	226	–	Nc1nc(-c2ccc3ncccc3c2)c(-c2ccccn2)s1 [Example 9, 4-(Quinolin-6-yl)-5-(pyridin-2-yl)-1,3-thiazol-2-amine]	–

Second part, the molecule before the results:

SMILES	IC50 [2] [nM]	melting point [°C]	IC50 [1] [nM]	firefly and renilla luciferase activities, relative to TGF-β only wells ([1]; 500 μM, in the presence of TGF-β, toxicity control)
O=C1C=CCC1 [CPO, Cyclopentenone, reference compound]	–	–	–	around 50%
Cc1cccc(-c2nc(N)sc2-c2ccc3ncn(C)c3c2)n1 [Example 1, 5-(1-methyl-benzimidazol-6-yl)-4-(6-methylpyridin-2-yl)-1,3-thiazol-2-amine]	16	244 to 246	11	–
CCn1cnc2ccc(-c3sc(N)nc3-c3cccc(C)n3)cc21 [Example 3, 5-(1-ethyl-benzimidazol-6-yl)-4-(6-methylpyridin-2-yl)-1,3-thiazol-2-amine]	–	218 to 220	–	–
Cc1cccc(-c2nc(N)sc2-c2ccc3c(c2)N(C)C(=O)CO3)n1 [Example 5, 5-[4-methyl-4H-benzo[1,4]oxazin-3-one-6-yl]-4-(6-methylpyridin-2-yl)-1,3-thiazol-2-amine]	–	240 to 242	–	–
Nc1nc(-c2ccc3c(c2)OCCO3)c(-c2ccccn2)s1 [Example 8, 4-(Benzodioxan-6-yl)-5-(Pyridin-2-yl)-1,3-thiazol-2-amine]	–	214	–	–
